Test results as given in PubChem BioAssay AID248 (DTP/NCI, 2004).
Where “and” joins values, the source holds several entries; their conditions need not be identical. Equal values may be shown once. Inconclusive results and toxic doses are left out.

Test system: L1210 leukemia ip in BDF1 mice, survival T/C
Assay: NCI In Vivo Anticancer Drug Screen. Data for tumor model L1210 Leukemia (intraperitoneal) in B6D2F1 (BDF1) mice
Settings: endpoint: mean survival time, higher = longer survival
Procedure, shortened: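 Read-out is survival time, reported as the treated-group measurement over the vehicle-control measurement.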

O=C(Nc1ccc(C2=NCCCN2)cc1)c1ccc(C(=O)Nc2ccc(C3=NCCCN3)cc2)cc1
T/C (dose: 0.5 mg/kg/injection, schedule: Q01DX Z (ip), vehicle: carboxymethylcellulose (CMC)): 95 % of control
T/C (dose: 0.5 mg/kg/injection, schedule: Q01DX Z (iv), vehicle: saline): 100 % of control
T/C (dose: 0.8 mg/kg/injection, schedule: Q01DX Z (ip), vehicle: carboxymethylcellulose (CMC)): 101 % of control
T/C (dose: 1.0 mg/kg/injection, schedule: Q01DX010 (ip), vehicle: other): 160 % of control
T/C (dose: 1.0 mg/kg/injection, schedule: Q01DX010 (iv), vehicle: other): 103 % of control
T/C (dose: 1.0 mg/kg/injection, schedule: Q01DX Z (iv), vehicle: saline): 107 % of control
T/C (dose: 1.2 mg/kg/injection, schedule: Q01DX Z (ip), vehicle: carboxymethylcellulose (CMC)): 103 % of control
T/C (dose: 1.9 mg/kg/injection, schedule: Q01DX Z (ip), vehicle: carboxymethylcellulose (CMC)): 109 % of control and 211 % of control
T/C (dose: 2.0 mg/kg/injection, schedule: Q01DX010 (ip), vehicle: other): 174 % of control and 235 % of control
T/C (dose: 2.0 mg/kg/injection, schedule: Q01DX010 (ip), vehicle: saline): 155 % of control
T/C (dose: 2.0 mg/kg/injection, schedule: Q01DX010 (iv), vehicle: other): 180 % of control
T/C (dose: 2.0 mg/kg/injection, schedule: Q01DX Z (iv), vehicle: saline): 111 % of control
T/C (dose: 2.8 mg/kg/injection, schedule: Q01DX Z (ip), vehicle: carboxymethylcellulose (CMC)): 277 % of control
T/C (dose: 4.0 mg/kg/injection, schedule: Q01DX010 (ip), vehicle: other): 205 % of control and 217 % of control and 265 % of control
T/C (dose: 4.0 mg/kg/injection, schedule: Q01DX010 (ip), vehicle: saline): 208 % of control and 235 % of control
T/C (dose: 4.0 mg/kg/injection, schedule: Q01DX010 (iv), vehicle: other): 237 % of control
T/C (dose: 4.0 mg/kg/injection, schedule: Q01DX010 (iv), vehicle: saline): 203 % of control
T/C (dose: 4.0 mg/kg/injection, schedule: Q01DX Z (iv), vehicle: other): 202 % of control
T/C (dose: 4.0 mg/kg/injection, schedule: Q01DX Z (iv), vehicle: saline): 238 % of control
T/C (dose: 4.2 mg/kg/injection, schedule: Q01DX Z (ip), vehicle: carboxymethylcellulose (CMC)): 280 % of control
T/C (dose: 6.3 mg/kg/injection, schedule: Q01DX Z (ip), vehicle: carboxymethylcellulose (CMC)): 209 % of control and 229 % of control
T/C (dose: 8.0 mg/kg/injection, schedule: Q01DX010 (ip), vehicle: other): 97 % of control and 115 % of control
T/C (dose: 8.0 mg/kg/injection, schedule: Q01DX010 (ip), vehicle: saline): 229 % of control and 338 % of control
T/C (dose: 8.0 mg/kg/injection, schedule: Q01DX010 (iv), vehicle: saline): 161 % of control
T/C (dose: 8.0 mg/kg/injection, schedule: Q01DX Z (iv), vehicle: saline): 182 % of control
T/C (dose: 9.4 mg/kg/injection, schedule: Q01DX Z (ip), vehicle: carboxymethylcellulose (CMC)): 211 % of control
T/C (dose: 16.0 mg/kg/injection, schedule: Q01DX010 (ip), vehicle: other): 103 % of control and 89 % of control
T/C (dose: 16.0 mg/kg/injection, schedule: Q01DX010 (iv), vehicle: saline): 117 % of control
T/C (dose: 16.0 mg/kg/injection, schedule: Q01DX010 (sc), vehicle: olive oil, sesame oil, peanut oil): 113 % of control
T/C (dose: 21.3 mg/kg/injection, schedule: Q01DX Z (ip), vehicle: carboxymethylcellulose (CMC)): 119 % of control
T/C (dose: 22.0 mg/kg/injection, schedule: Q01DX010 (sc), vehicle: olive oil, sesame oil, peanut oil): 101 % of control
T/C (dose: 30.0 mg/kg/injection, schedule: Q01DX Z (oral), vehicle: carboxymethylcellulose (CMC)): 95 % of control
T/C (dose: 31.3 mg/kg/injection, schedule: Q01DX010 (sc), vehicle: olive oil, sesame oil, peanut oil): 119 % of control and 89 % of control
T/C (dose: 31.3 mg/kg/injection, schedule: Q02DX004 (im), vehicle: olive oil, sesame oil, peanut oil): 116 % of control and 124 % of control
T/C (dose: 32.0 mg/kg/injection, schedule: Q01DX Z (ip), vehicle: carboxymethylcellulose (CMC)): 123 % of control
T/C (dose: 44.0 mg/kg/injection, schedule: Q01DX Z (sc), vehicle: saline): 109 % of control
T/C (dose: 48.0 mg/kg/injection, schedule: Q01DX Z (ip), vehicle: carboxymethylcellulose (CMC)): 94 % of control
T/C (dose: 60.0 mg/kg/injection, schedule: Q01DX Z (oral), vehicle: carboxymethylcellulose (CMC)): 91 % of control
T/C (dose: 62.5 mg/kg/injection, schedule: Q01DX001 (im), vehicle: steriod suspending solution): 106 % of control
T/C (dose: 62.5 mg/kg/injection, schedule: Q01DX010 (oral), vehicle: other): 111 % of control
T/C (dose: 62.5 mg/kg/injection, schedule: Q02DX004 (im), vehicle: olive oil, sesame oil, peanut oil): 100 % of control and 107 % of control
T/C (dose: 66.0 mg/kg/injection, schedule: Q01DX Z (sc), vehicle: saline): 102 % of control
T/C (dose: 72.0 mg/kg/injection, schedule: Q01DX Z (ip), vehicle: carboxymethylcellulose (CMC)): 100 % of control
T/C (dose: 88.5 mg/kg/injection, schedule: Q#A X Z (oral), vehicle: saline): 115 % of control
T/C (dose: 100.0 mg/kg/injection, schedule: Q01DX Z (sc), vehicle: saline): 105 % of control
T/C (dose: 120.0 mg/kg/injection, schedule: Q01DX Z (oral), vehicle: carboxymethylcellulose (CMC)): 91 % of control
T/C (dose: 125.0 mg/kg/injection, schedule: Q01DX001 (im), vehicle: steriod suspending solution): 108 % of control
T/C (dose: 125.0 mg/kg/injection, schedule: Q02DX004 (im), vehicle: olive oil, sesame oil, peanut oil): 98 % of control and 105 % of control
T/C (dose: 150.0 mg/kg/injection, schedule: Q01DX Z (sc), vehicle: saline): 98 % of control and 103 % of control
T/C (dose: 177.0 mg/kg/injection, schedule: Q01DX Z (oral), vehicle: saline): 109 % of control
T/C (dose: 200.0 mg/kg/injection, schedule: Q#A X Z (oral), vehicle: saline): 161 % of control
T/C (dose: 250.0 mg/kg/injection, schedule: Q01DX001 (im), vehicle: steriod suspending solution): 93 % of control
T/C (dose: 250.0 mg/kg/injection, schedule: Q01DX010 (oral), vehicle: other): 183 % of control
T/C (dose: 250.0 mg/kg/injection, schedule: Q02DX004 (im), vehicle: olive oil, sesame oil, peanut oil): 100 % of control and 104 % of control
T/C (dose: 300.0 mg/kg/injection, schedule: Q01DX Z (sc), vehicle: saline): 105 % of control
T/C (dose: 333.0 mg/kg/injection, schedule: Q## X010 (oral), vehicle: saline): 153 % of control
T/C (dose: 400.0 mg/kg/injection, schedule: Q01DX Z (oral), vehicle: saline): 158 % of control
T/C (dose: 500.0 mg/kg/injection, schedule: Q01DX010 (oral), vehicle: other): 181 % of control
T/C (dose: 500.0 mg/kg/injection, schedule: Q## X010 (oral), vehicle: saline): 121 % of control
T/C (dose: 531.0 mg/kg/injection, schedule: Q03DX Z (oral), vehicle: saline): 105 % of control
T/C (dose: 600.0 mg/kg/injection, schedule: Q01DX Z (oral), vehicle: saline): 151 % of control and 163 % of control
T/C (dose: 798.0 mg/kg/injection, schedule: Q03DX Z (oral), vehicle: saline): 107 % of control
T/C (dose: 900.0 mg/kg/injection, schedule: Q01DX Z (oral), vehicle: saline): 124 % of control
T/C (dose: 1200.0 mg/kg/injection, schedule: Q03DX Z (oral), vehicle: saline): 98 % of control
T/C (dose: 1239.0 mg/kg/injection, schedule: Q07DX Z (oral), vehicle: saline): 102 % of control
T/C (dose: 1800.0 mg/kg/injection, schedule: Q03DX Z (oral), vehicle: saline): 111 % of control
T/C (dose: 1862.0 mg/kg/injection, schedule: Q07DX Z (oral), vehicle: saline): 105 % of control
T/C (dose: 2700.0 mg/kg/injection, schedule: Q03DX Z (oral), vehicle: saline): 121 % of control
T/C (dose: 2800.0 mg/kg/injection, schedule: Q07DX Z (oral), vehicle: saline): 101 % of control
T/C (dose: 4200.0 mg/kg/injection, schedule: Q07DX Z (oral), vehicle: saline): 105 % of control

C=C(C)C1CCC2(C=O)CCC3(C)C(CCC4C5(C)CCC(O)C(C)(C)C5CCC43C)C12 (stereo not given)
T/C (dose: 18.75 mg/kg/injection, schedule: Q01DX009 (ip), vehicle: Klucel (hydroxypropylcellulose) (HPC)): 100 % of control
T/C (dose: 37.5 mg/kg/injection, schedule: Q01DX009 (ip), vehicle: Klucel (hydroxypropylcellulose) (HPC)): 93 % of control
T/C (dose: 75.0 mg/kg/injection, schedule: Q01DX009 (ip), vehicle: Klucel (hydroxypropylcellulose) (HPC)): 89 % of control

CCn1c(O)c(C=N)c(=O)n(CC)c1=O
T/C (dose: 100.0 mg/kg/injection, schedule: Q01DX009 (ip), vehicle: saline): 95 % of control
T/C (dose: 100.0 mg/kg/injection, schedule: Q04DX003 (ip), vehicle: saline): 106 % of control
T/C (dose: 200.0 mg/kg/injection, schedule: Q04DX003 (ip), vehicle: saline): 93 % of control
T/C (dose: 400.0 mg/kg/injection, schedule: Q04DX003 (ip), vehicle: saline): 113 % of control

Cc1cccc(Cl)c1NC(=S)N1CCCC1
T/C (dose: 100.0 mg/kg/injection, schedule: Q01DX009 (ip), vehicle: Klucel (hydroxypropylcellulose) (HPC)): 94 % of control
T/C (dose: 200.0 mg/kg/injection, schedule: Q01DX009 (ip), vehicle: Klucel (hydroxypropylcellulose) (HPC)): 94 % of control
T/C (dose: 400.0 mg/kg/injection, schedule: Q01DX009 (ip), vehicle: Klucel (hydroxypropylcellulose) (HPC)): 96 % of control
